From ChEMBL document CHEMBL1201862, “PubChem BioAssay data set” (2004)
“And” between values parts separate entries of the source, which are not always exact repeats. Identical values can stand only once. The source made the active and inactive calls.

What was measured:
[1] = general mammalian cell viability loss – inhibitor set, cherry-pick, set 2, cytotoxicity control for miR-122 modulator project, dose response (AID 720697); type: functional, cell-based
[2] = general mammalian cell viability loss – activator set, cherry-pick, cytotoxicity control for miR-122 modulator project, dose response (AID 720690); type: functional, cell-based;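 note: HEK293T human cells scored for general mammalian cytotoxicity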
[3] = target: T1, Short transient receptor potential channel 4 (Mus musculus, UniProt Q9QUQ5); experiment: calcium entry via TRPC4 opening agents – cell-based, HEK293 TRPC4/mu-opioid, Fluo-4 calcium, dose response (AID 434937); type: functional
T1 sequence (Q9QUQ5 whole entry): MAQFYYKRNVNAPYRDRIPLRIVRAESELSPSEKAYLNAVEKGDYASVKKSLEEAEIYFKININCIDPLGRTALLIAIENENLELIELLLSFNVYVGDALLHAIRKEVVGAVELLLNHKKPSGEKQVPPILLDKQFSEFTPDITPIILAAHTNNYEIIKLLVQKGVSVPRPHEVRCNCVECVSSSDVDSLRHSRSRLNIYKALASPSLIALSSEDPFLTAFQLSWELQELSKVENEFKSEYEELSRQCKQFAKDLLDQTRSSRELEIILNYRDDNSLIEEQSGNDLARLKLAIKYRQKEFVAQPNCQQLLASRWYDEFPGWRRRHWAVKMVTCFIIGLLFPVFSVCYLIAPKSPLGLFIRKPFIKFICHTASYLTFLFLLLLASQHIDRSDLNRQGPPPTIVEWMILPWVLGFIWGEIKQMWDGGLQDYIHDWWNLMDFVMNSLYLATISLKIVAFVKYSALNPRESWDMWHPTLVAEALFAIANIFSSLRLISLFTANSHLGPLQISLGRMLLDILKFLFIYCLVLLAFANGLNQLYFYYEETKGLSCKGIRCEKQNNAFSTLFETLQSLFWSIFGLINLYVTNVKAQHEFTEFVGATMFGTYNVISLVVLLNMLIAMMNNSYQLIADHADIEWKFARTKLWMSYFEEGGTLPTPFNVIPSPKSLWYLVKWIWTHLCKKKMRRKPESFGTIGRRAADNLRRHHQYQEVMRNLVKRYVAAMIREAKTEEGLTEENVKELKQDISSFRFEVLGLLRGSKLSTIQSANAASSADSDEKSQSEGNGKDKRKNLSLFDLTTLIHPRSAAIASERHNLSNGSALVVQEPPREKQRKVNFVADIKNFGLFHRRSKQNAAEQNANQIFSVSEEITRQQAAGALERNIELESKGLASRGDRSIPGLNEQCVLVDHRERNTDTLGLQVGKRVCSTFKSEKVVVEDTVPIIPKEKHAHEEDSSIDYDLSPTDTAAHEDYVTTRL

Kallikrein-7 = Kallikrein-7 (Homo sapiens, UniProt P49862); experiment: Fluorescence Intensity-based biochemical primary high throughput dose response assay to identify activators of kallikrein-7 (K7) zymogen.
Sequence of Kallikrein-7 (P49862 whole entry): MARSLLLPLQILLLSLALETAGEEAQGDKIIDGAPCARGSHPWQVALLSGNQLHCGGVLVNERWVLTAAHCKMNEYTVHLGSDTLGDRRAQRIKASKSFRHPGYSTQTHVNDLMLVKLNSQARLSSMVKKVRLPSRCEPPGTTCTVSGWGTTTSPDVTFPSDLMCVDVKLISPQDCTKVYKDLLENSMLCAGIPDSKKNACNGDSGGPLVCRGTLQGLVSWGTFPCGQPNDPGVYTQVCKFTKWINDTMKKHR

[4] = target: T2, Nuclear receptor subfamily 0 group B member 1 (Homo sapiens, UniProt P51843); experiment: Luminescence-based cell-based high throughput dose response assay for inhibitors of the orphan nuclear receptor subfamily 0, group B, member 1 (DAX1; NR0B1). [Related pubchem assays (depositor defined):AID504766, AID504790]; type: functional
T2 sequence (P51843 whole entry): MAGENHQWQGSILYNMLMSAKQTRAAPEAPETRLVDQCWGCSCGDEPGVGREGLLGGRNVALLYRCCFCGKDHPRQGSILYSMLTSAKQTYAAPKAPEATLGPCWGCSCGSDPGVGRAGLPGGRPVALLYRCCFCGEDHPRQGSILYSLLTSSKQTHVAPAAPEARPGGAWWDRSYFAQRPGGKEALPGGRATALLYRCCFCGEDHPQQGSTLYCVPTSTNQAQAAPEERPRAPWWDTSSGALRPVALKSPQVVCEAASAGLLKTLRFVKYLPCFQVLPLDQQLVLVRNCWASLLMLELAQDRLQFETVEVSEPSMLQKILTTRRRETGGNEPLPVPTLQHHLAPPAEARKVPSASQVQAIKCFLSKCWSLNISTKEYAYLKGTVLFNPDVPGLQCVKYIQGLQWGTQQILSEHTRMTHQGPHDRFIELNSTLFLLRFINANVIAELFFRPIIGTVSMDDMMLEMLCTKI

[5] = target: T3, Oxysterols receptor LXR-beta (Homo sapiens, UniProt P55055); type: functional, cell-based;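 note: Cell-based luminescence dose-response assay of agonist activity at LXR, run as a confirmatory counterscreen to a daf-12 agonist screen; HEK293 cells with Gal4-LXR fusion and GAL4-driven luciferase reporter; agonist potency from rising luciferase signal of a Gal4-LXR reporter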
T3 sequence (P55055 whole entry): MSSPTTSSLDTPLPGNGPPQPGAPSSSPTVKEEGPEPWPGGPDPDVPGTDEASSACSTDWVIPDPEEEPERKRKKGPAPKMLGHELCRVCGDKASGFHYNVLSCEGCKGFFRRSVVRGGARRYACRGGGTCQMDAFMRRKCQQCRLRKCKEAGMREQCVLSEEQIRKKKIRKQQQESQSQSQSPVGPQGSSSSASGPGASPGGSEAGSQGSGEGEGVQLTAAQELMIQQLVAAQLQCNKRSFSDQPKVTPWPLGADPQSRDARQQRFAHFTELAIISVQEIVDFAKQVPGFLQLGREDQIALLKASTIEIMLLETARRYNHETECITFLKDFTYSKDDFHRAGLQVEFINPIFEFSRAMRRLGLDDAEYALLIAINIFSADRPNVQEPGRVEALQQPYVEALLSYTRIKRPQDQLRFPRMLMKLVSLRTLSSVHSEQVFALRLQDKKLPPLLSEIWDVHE

HEK293 [6] = experiment: cells; type: functional, cell-based; conditions: Homo sapiens
HEK293 [7] = experiment: inhibition of NOD1-driven NF-kB reporter – cell-based, luminescence, uHTS, primary screen (AID 1578); type: functional; conditions: Homo sapiens
HEK293 [8] = experiment: cells; type: functional, cell-based; conditions: Homo sapiens; remark: listed apart in the source
HEK293 [9] = experiment: cells; conditions: Homo sapiens
[10] = target: T4, Nucleotide-binding oligomerization domain-containing protein 1 (Homo sapiens, UniProt Q9Y239); experiment: blockers of NOD1 pathway activity – revised, SAR follow-up (AID 2333); type: functional
T4 sequence (Q9Y239 whole entry): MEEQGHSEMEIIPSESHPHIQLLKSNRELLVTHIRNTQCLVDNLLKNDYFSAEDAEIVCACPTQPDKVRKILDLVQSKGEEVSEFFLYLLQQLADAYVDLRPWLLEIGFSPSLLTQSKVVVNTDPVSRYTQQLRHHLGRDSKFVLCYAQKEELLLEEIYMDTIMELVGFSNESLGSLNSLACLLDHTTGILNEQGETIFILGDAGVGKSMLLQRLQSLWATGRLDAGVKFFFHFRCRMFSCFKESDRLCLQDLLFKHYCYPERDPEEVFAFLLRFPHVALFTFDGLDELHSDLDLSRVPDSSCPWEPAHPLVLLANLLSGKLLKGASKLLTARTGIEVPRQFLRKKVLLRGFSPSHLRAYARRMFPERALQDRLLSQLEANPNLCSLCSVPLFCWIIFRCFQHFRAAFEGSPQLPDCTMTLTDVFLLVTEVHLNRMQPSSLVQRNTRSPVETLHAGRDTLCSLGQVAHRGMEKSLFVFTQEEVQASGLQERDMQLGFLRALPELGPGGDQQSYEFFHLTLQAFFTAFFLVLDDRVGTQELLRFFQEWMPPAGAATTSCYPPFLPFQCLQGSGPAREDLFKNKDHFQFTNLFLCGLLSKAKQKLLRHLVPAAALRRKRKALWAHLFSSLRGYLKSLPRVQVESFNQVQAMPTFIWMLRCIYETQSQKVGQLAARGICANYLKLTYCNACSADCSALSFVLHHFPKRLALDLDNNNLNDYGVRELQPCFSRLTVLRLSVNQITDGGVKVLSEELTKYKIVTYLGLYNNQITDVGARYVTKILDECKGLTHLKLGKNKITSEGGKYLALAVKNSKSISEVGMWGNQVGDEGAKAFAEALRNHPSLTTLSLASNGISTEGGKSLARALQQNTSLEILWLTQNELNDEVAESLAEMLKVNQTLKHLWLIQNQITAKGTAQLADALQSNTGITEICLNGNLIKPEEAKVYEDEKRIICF

HEK293 [11] = experiment: NOD2 signaling inhibitors in MDP-stimulated cells, cell-based, uHTS, luminescence (AID 2001); type: functional; conditions: Homo sapiens
[12] = target: Disintegrin and metalloproteinase domain-containing protein 17 (Homo sapiens, UniProt P78536); experiment: inhibition of ADAM17 substrate cleavage – biochemical, quenched FRET substrate, counter-screen for ADAM10 exosite inhibitor project, dose response (AID 743253)
Sequence of Disintegrin and metalloproteinase domain-containing protein 17 (P78536 whole entry, the tested form may be a part): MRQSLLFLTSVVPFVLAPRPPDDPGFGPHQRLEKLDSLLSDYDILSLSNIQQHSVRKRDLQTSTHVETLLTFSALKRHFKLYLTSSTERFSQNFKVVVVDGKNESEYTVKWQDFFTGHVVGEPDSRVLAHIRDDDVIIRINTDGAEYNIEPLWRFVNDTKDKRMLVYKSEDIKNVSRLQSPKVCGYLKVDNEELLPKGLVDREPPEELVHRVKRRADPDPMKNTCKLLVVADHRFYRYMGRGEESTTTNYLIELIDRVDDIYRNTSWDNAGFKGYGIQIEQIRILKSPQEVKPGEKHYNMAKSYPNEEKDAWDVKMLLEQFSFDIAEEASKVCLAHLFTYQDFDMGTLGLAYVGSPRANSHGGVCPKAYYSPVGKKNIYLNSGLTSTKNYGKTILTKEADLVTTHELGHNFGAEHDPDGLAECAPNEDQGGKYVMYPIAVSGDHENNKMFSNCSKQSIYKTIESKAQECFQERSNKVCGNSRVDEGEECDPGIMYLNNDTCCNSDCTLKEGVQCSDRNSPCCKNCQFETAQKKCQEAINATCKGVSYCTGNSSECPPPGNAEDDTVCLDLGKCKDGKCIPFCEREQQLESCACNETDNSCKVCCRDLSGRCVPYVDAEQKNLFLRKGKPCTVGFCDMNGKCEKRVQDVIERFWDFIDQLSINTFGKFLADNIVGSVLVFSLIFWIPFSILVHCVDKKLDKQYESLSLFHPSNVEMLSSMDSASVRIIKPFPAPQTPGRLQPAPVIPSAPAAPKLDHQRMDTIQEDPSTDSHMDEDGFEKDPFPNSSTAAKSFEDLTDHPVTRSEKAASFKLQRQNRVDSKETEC

[13] = potency of ADAM10 substrate cleavage blockers – biochemical, QFRET, dose response (AID 743254);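 note: ADAM10 enzyme with the DM2 quenched FRET peptide as substrate; EDANS fluorescence gain as the protease cuts the substrate; inhibitor potency against ADAM10 proteolytic activity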
Tumor necrosis factor = Tumor necrosis factor (Homo sapiens, UniProt P01375); experiment: analog potency on TNFa NF-kB signaling – cell-based, revised, SAR follow-up (AID 2337); type: functional
Sequence of Tumor necrosis factor (P01375 whole entry): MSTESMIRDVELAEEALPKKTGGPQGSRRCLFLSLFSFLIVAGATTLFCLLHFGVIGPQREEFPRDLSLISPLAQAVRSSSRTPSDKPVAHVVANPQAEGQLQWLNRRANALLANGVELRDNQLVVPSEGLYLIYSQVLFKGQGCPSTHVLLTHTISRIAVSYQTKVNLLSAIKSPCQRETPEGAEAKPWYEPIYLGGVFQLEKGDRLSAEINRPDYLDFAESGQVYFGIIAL

HEK293 [14] = experiment: cells; type: functional, cell-based; conditions: Homo sapiens; remark: listed apart in the source
HEK293 [15] = experiment: cells; conditions: Homo sapiens; remark: listed apart in the source
HEK293 [16] = experiment: cells; conditions: Homo sapiens; remark: listed apart in the source
Paired box protein Pax-8 = Paired box protein Pax-8 (Homo sapiens, UniProt Q06710); experiment: PAX8 transcriptional activity inhibition in RMG-I – RMG-I cells, luciferase, cherry-pick, dose response (AID 687027); type: functional, cell-based;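 note: luciferase reporter driven by Pax8 target thyroperoxidase promoter measured by SteadyGlo luminescence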
Sequence of Paired box protein Pax-8 (Q06710 whole entry): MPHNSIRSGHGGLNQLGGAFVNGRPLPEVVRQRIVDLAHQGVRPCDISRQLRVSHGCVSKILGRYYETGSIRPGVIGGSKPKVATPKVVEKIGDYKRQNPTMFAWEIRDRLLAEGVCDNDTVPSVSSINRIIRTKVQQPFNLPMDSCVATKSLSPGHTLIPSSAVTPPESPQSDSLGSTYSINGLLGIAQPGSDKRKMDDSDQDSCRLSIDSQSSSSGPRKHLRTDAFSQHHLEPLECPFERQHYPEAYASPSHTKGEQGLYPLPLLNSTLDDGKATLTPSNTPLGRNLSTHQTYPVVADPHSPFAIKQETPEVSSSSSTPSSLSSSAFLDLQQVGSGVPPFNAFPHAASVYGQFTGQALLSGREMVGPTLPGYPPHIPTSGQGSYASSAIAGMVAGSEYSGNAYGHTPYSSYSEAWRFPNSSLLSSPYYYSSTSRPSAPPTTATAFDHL

[17] = general cell-killing toxicity readout – plate reader, dry powder samples, cytotoxicity control for PAX8 inhibitor project, dose response (AID 743021); type: functional, cell-based
[18] = A2780 cell killing – plate reader, dry powder samples, cytotoxicity control, dose response (AID 743046); type: functional, cell-based
[19] = OVCAR-3 cell viability loss – plate reader, dry powder samples, PAX8 inhibitor project, dose response (AID 743044); type: functional, cell-based
[20] = OVCAR8 cell viability loss – plate reader, dry powder samples, PAX8 project, dose response (AID 743197); type: functional, cell-based; conditions: OVCAR-8
[21] = T. cruzi growth inhibition in host cells, dose response, cell-based, plate reader, dry powder, set 2 (AID 652275); type: functional
[22] = mouse embryonic fibroblast toxicity – cell-based, plate reader, dry powder, set 2, cytotoxicity control, dose response (AID 652280); type: functional; conditions: NIH3T3
Vasopressin V1b receptor = Vasopressin V1b receptor (Homo sapiens, UniProt P47901); experiment: Late-stage results from the probe development effort to identify antagonists of arginine vasopressin receptor 1a (AVPR1a): fluorescence-based cell-based dose response AVPR1b inhibition counterscreen assay.; type: functional
Sequence of Vasopressin V1b receptor (P47901 whole entry): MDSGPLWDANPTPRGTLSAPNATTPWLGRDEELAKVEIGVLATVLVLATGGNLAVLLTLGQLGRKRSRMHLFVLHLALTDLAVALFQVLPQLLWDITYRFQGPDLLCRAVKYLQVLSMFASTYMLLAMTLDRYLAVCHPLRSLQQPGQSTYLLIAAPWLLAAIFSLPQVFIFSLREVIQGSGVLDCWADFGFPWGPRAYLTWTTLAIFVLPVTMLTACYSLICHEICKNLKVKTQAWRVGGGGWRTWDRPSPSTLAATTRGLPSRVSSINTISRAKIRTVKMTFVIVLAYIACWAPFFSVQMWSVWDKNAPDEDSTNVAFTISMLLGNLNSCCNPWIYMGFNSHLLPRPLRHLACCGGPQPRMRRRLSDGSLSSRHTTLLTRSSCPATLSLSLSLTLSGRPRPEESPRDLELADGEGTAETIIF

[23] = Late-stage results from the probe development effort to identify antagonists of arginine vasopressin receptor 1a (AVPR1a): fluorescence-based cell-based dose response AVPR1a inhibition assay.; type: functional
Vasopressin V2 receptor = Vasopressin V2 receptor (Homo sapiens, UniProt P30518); experiment: Late-stage results from the probe development effort to identify antagonists of arginine vasopressin receptor 1a (AVPR1a): fluorescence-based cell-based dose response AVPR2 inhibition counterscreen assay.; type: functional
Sequence of Vasopressin V2 receptor (P30518 whole entry): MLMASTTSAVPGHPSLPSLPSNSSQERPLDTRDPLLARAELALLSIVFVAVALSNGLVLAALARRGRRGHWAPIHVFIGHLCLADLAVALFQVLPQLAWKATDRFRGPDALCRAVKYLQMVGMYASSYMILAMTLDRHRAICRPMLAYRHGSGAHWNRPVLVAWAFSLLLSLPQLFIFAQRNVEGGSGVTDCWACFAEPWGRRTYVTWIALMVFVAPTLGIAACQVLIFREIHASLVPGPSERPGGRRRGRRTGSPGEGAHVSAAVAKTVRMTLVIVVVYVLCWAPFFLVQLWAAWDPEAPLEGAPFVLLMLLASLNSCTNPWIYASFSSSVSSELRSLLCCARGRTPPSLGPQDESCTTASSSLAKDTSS

[24] = Late-stage results from the probe development effort to identify antagonists of arginine vasopressin receptor 1a (AVPR1a): fluorescence-based cell-based dose response OXTR inhibition counterscreen assay.; type: functional

FC(F)(F)c1cnc(N2CCCN(C(S)=Nc3ccccc3)CC2)c(Cl)c1
AC50 [1]: 3.78 µM (active) | AC50 [2]: 26.9 µM (active) | EC50 [3]: 0.421 µM (active)

O=C(Nc1ccc(NC(=O)c2cccs2)cc1)c1cccs1
EC50 (Kallikrein-7): > 69.5 µM (inactive)

Cc1ccc(O)c(-c2cc(-c3ccc(F)cc3)no2)c1
IC50 [4]: > 67.5 µM (inactive) | EC50 (cells): > 67.5 µM (inactive) | EC50 [5]: > 67.5 µM (inactive) | IC50 (HEK293 [6]): > 67.5 µM (inactive)

CCOc1ccc(NC(=O)c2ccc(CN3CCc4ccccc4C3)cc2)cc1
EC50 (HEK293 [7]): 0.79 µM (active) | IC50 (HEK293 [8]): 3.96 µM (active) | IC50 (HEK293 [9]): > 20 µM (inactive) | IC50 [10]: 1.79 µM (active) and 1.13 µM (active) | IC50 (HEK293 [11]): > 20 µM (inactive) | IC50 [12]: > 69.5 µM (inactive) | IC50 [13]: > 69.5 µM (inactive) | IC50 (Tumor necrosis factor): 6.05 µM (active) and 2.05 µM (active) | IC50 (HEK293 [14]): > 20 µM (inactive)

COc1ccccc1N(C)S(=O)(=O)c1ccc(C(=O)Nc2ccc(C(N)=O)cc2)cc1
EC50 (Kallikrein-7): 15.8 µM (inactive)

CC1(Cc2cccc(C#N)c2)C(=O)Nc2ccc(-c3cccc(C(F)(F)F)c3)cc21 (stereo unspecified)
EC50 (HEK293 [15]): > 59.7 µM (inactive) | IC50 [12]: > 69.5 µM (inactive) | EC50 (HEK293 [16]): > 59.7 µM (inactive) | IC50 [13]: 8.9 µM (active)

Cc1ccccc1-c1ccc2c(c1)O[C@H](CN(C)C(=O)Nc1ccc(C(F)(F)F)cc1)[C@H](C)CN([C@@H](C)CO)S2(=O)=O
AC50 (Paired box protein Pax-8): 9.3 µM (active) | AC50 [17]: 44.3 µM (active) | AC50 [18]: < 0.26 µM (active) | AC50 [19]: 42.5 µM (active)

C[C@H](CO)N1C[C@H](C)[C@H](CN(C)S(=O)(=O)c2ccccc2)OCCCC[C@H](C)Oc2ccc(NS(=O)(=O)c3ccc(Cl)cc3)cc2C1=O
AC50 (Paired box protein Pax-8): 10.1 µM (active) | AC50 [18]: 6.87 µM (active) | AC50 [20]: 3.41 µM (active)

CC(C)N1CC[C@@H](CN(C)Cc2ccc(Oc3ccccc3)cc2)Oc2c(NC(=O)c3ccncc3)cccc2C1=O
AC50 [21]: 0.0195 µM (active) | AC50 [22]: 23.4 µM (active)

CC(C)N1C[C@@H](CN(C)Cc2ccc(Oc3ccccc3)cc2)Oc2c(NC(=O)c3ccncc3)cccc2C1=O
AC50 [21]: 0.00223 µM (active) | AC50 [22]: 2.36 µM (active)

O=C(C1CCN(c2ccc(F)cn2)CC1)N(CC1CC1)c1ccc(Cl)cc1
IC50 (Vasopressin V1b receptor): 20.5 µM (inactive) | IC50 [23]: 0.0241 µM (active) | IC50 (Vasopressin V2 receptor): 24.3 µM (inactive) | IC50 [24]: 9 µM (active)

COCCN(C(=O)N1CCN(c2ccccc2C)CC1)c1ccc(OC)cc1
IC50 (Vasopressin V1b receptor): 29.3 µM (inactive) | IC50 [23]: 0.1 µM (active) | IC50 (Vasopressin V2 receptor): 19.6 µM (inactive) | IC50 [24]: 1 µM (active)
